Measurements taken from US10716783B2, “Prolylhydroxylase/ATF4 inhibitors and methods of use for treating neural cell injury or death and conditions resulting therefrom” (CORNELL UNIVERSITY, priority 2013, dated 2020).
Read-outs that look alike come from different tables or passages of the source.

Legend:
[1] = tested on: HIF-1 protein; test: HIF-1 protein stabilisation in primary neurons (Western blot); format: cell-based; details: primary neurons, Western blot
Source text: FIGS. 1A-1L: Structurally diverse HIF PHD inhibitors stabilize HIF-1 and abrogate toxicity induced by hemin, a byproduct of blood breakdown, in cortical neurons hippocampal neuroblasts and striatal neuroblasts (not shown). […] FIGS. 6A-6I. […] Expression of ATF4 was forced into primary neurons, which induces death of these neurons by MTT assay (FIG. 6D) or LIVE/DEAD staining, Green is live, Red is dead (FIG. 6E).

[2] = tested on: HIF PHDs; test: ODD-luciferase cell based assay
[3] = tested on: primary cortical neurons; test: Hemin-induced toxicity in primary cortical neurons (MTT, LIVE/DEAD); format: cell-based; details: for EC50: primary cortical neurons, MTT assay, read-out: EC50 for abrogating hemin toxicity
Source text: (§1) FIGS. 1A-1L: Structurally diverse HIF PHD inhibitors stabilize HIF-1 and abrogate toxicity induced by hemin, a byproduct of blood breakdown, in cortical neurons hippocampal neuroblasts and striatal neuroblasts (not shown).
(§2) Secondary injury from ICH has been attributed to hemin, a breakdown product of hemoglobin (from lysed red blood cells). To investigate the mechanisms of hemin toxicity to neurons in vitro, this experiment exposed primary cortical neurons, immortalized hippocampal neuroblasts (HT22 cells), and immortalized striatal neuroblasts (Q7 cells) to hemin for 24 hours. As expected, a dose dependent loss in viability as measured by MTT reduction or LIVE/DEAD assay in all three cell types was observed. […] To examine whether iron-dependent HIF PHD enzymes can be modulated to protect neurons from hemin-induced toxicity, this experiment examined structurally diverse inhibitors of the HIF PHDs: desferoxamine, cyclopirox, and dihydroxybenzoic acid. […] To test this notion further using a chemical biological approach, the protective effects of cyclopirox, a HIF PHD inhibitor, and a cyclopirox analog with no PHD inhibitory activity but with similar metal binding affinity to cyclopirox were compared. As expected, only the cyclopirox analog with PHD inhibitory activity was neuroprotective.

[4] = tested on: HIF PHDs; test: ODD-luciferase reporter mice, in vivo bioluminescence imaging and tissue lysates; details: in vivo bioluminescence imaging; intraperitoneal; adaptoquin 30 mg/kg
Source text: FIGS. 3A-3G. Validation of adaptoquin as a novel HIF PHD inhibitor. […] Under steady state conditions, activity of HIF PHD2 with its co-substrate 2-oxoglutarate involves two peaks that represent non-hydroxylated and hydroxylated peptide. The hydroxylated peptide disappears in the presence of HIF PHD2 inhibition by adaptoquin. […] The reporter contains the ODD domain of HIF-1 which confers HIF PHD regulated stability on it. It is expressed in all cells of the body, but is destabilized in the absence of HIF PHD inhibition and stabilized in its presence. Quantitative measurements confirm stability of the ODD-luc in brain, kidney and liver (FIGS. 3D and 3E.).
To identify HIF PHD inhibitors suitable for testing in ICH, the experiment first sought to identify which of the known HIF PHD inhibitors could penetrate the blood brain barrier to inhibit HIF PHD activity in the CNS. To monitor HIF PHD activity dynamically, the experiment utilized mice that had previously been engineered to ubiquitously express the oxygen degradation domain (ODD) of HIF-1α fused to firefly luciferase. The ODD domain contains proline 402 and 564, which are hydroxylated by the HIF PHDs to degrade HIF-1 or the ODD-luciferase. Accordingly, these mice have been used previously to track HIF PHD activity in diverse organs in vivo using in vivo bioluminescence imaging.
To verify that the changes in light in the brain reflect parenchymal changes in ODD-luciferase levels rather than increases in changes in skin or dural ODD-luciferase, ODD-luciferase activity was measured normalized to total protein in lysates from distinct brain regions using a luminometer.

[5] = tested on: immortalized hippocampal neuroblasts (HT22 cells); test: Hemin-induced toxicity in hippocampal neuroblasts (MTT); format: cell-based; details: MTT assay, read-out: EC50 for abrogating hemin toxicity
Source text: as §1
as §2, with “neuroprotective. […]” for “neuroprotective.”

[6] = tested on: immortalized striatal neuroblasts (Q7 cells); test: Hemin-induced toxicity in striatal neuroblasts (MTT); format: cell-based; details: MTT assay, read-out: EC50 for abrogating hemin toxicity
Source text: as §1, §2

Structure (SMILES)	Stabilisation of HIF-1 protein [1]	ODD-luciferase activity in cell based assays [2]	EC50 ([3]; Primary cortical neuron)	Prevention of hemin-induced death ([3]; neurons, FIGS. 1M, 1O-1R)	ODD-luciferase activity in brain [4]	EC50 [5]	EC50 [3]	EC50 [6]
Cc1cc(C2CCCCC2)n(O)c(=O)c1 [cyclopirox]	stabilize HIF-1 protein	induced the ODD-luciferase activity in cell based assays	1.4 µM	prevents hemin-induced death	failed to increase ODD-luciferase activity in the brain			
CC(=O)N(O)CCCCCNC(=O)CCC(=O)N(O)CCCCCNC(=O)CCC(=O)N(O)CCCCCN [Desferoxamine]	stabilize HIF-1 protein	induced the ODD-luciferase activity in cell based assays			failed to increase ODD-luciferase activity in the brain	50.8 µM	34.1 µM	26.7 µM
